Source: article PMC4281461, “Pharmacokinetic Comparative Study of Gastrodin and Rhynchophylline after Oral Administration of Different Prescriptions of Yizhi Tablets in Rats by an HPLC-ESI/MS Method” (Evidence-based Complementary and Alternative Medicine : eCAM, 2014)
Read-outs that look alike come from different tables or passages of the source.

Assays:
[1] = Plasma pharmacokinetics in rats after oral administration of Yizhi tablets, EPT or EPG (HPLC-ESI/MS); format: in vivo, Sprague-Dawley rats; details: for AUC(0-inf) / CL/F / Cmax / Tmax / MRT last / MRT inf / AUC(0-t): male, Sprague-Dawley; for MRT last: read-out: MRT(0–t) (converted); for MRT inf: read-out: MRT(0–∞) (converted)
Protocol: Male Sprague-Dawley rats (weight: 220 ± 30 g) were purchased from the animal laboratory centre at Tsinghua University (Beijing, China). All animals were maintained in an environmentally controlled room under controlled temperature (22–25°C) and relative humidity (50 ± 5%) on 12 h light/dark cycles (lights on from 08:00 to 20:00). Experiments were conducted in a specific pathogen-free (SPF) grade laboratory, according to the guidelines of the Guiding Principles for the Care and Use of Laboratory Animals approved by the Committee for Animal Experiments at Tsinghua University (Beijing, China). The animals were acclimated for one week before use. Standard diet and water were provided to the rats ad libitum.
Yizhi tablets were prepared by mixing Yizhi tablet powder (9 g) in 10 mL 5% CMC-Na with a magnetic stirring apparatus. The concentration of effective parts of tianma (EPT, total saponins from Gastrodiae) and gouteng (EPG, rhynchophylla alkaloids) was equivalent to that in a Yizhi tablet. The three different suspensions were shacked uniformly before administration.
The rats were randomly assigned to one of three groups (1–3), representing the groups administered with EPT, EPG, and Yizhi, respectively. Each group contained six rats. The rats fasted overnight with free access to water before dose administration. After a single dose was administered by oral gavage, blood samples (0.5 mL) were collected in heparinized tubes via the orbital vein at 0 min, 10 min, 20 min, 30 min, 45 min, 1 h, 2 h, 4 h, 6 h, 8 h, and 12 h. All blood samples were centrifuged at 3000 rpm for 15 min to collect plasma. The plasma samples obtained were stored at −20°C until analysis. Along with the plasma samples, quality control (QC) samples were distributed among calibrators and unknown samples in the analytical run. All of the blank samples used as controls were prepared by the same method as drug-containing samples.
To 200 μL of thawed plasma, 25 μL aqueous ammonia and 800 μL ether were added. The supernatant was separated and dried under nitrogen gas at 37°C after vortexing for 1 min and centrifuging at 10,000 g for 15 min at 4°C. The residues were reconstituted in 50 μL of methanol and centrifuged at 15,000 g for 15 min. A 20 μL aliquot of the supernatant was injected into the HPLC-MS system for analysis of RIN. To the residue, 800 μL methanol was added. The supernatant was separated and evaporated to dryness under nitrogen at room temperature after being vortexed for 3 min and centrifuged at 10,000 g for 15 min. The residue was reconstituted in 50 μL of the initial mobile phase and centrifuged at 15,000 g for 15 min. 20 μL aliquot of the supernatant was injected into the HPLC-MS system for analysis of GAS and HBA.
Yizhi tablets, EPT, and EPG were separately suspended in 0.5% carboxymethylcellulose solution and administered orally to six conscious rats at doses of 9 g/kg for Yizhi tablets, 5.4 g/kg for EPT, and 3.6 g/kg for EPG, respectively. Blood samples were collected from the retroorbital plexus of rats under light anaesthesia with ether. Blood samples were collected in microfuge tubes containing heparin as an anticoagulant at 0 min, 10 min, 20 min, 30 min, 45 min, 1 h, 2 h, 4 h, 6 h, 8 h, and 12 h after treatment. Plasma was harvested by centrifuging blood samples at 3500 ×g for 10 min and stored at −80°C until analysis. The concentrations of GAS, HBA, and RIN in plasma were determined as described above. QC samples were distributed among calibrators and samples in the analytical run to adjust the error.
The pharmacokinetic parameters, such as area under the plasma concentration-time curve (AUC), maximum plasma concentration (C max), corresponding time (T max) and half-life (T 1/2), plasma clearance (CL), mean residence time (MRT), and initial plasma concentration (C 0) for orally administered dose, were performed on each individual set using the software of Kinetica (Version 5.0, Thermo Electron Corp., MA, USA) by the noncompartmental model. […]

[2] = Stability of GAS, HBA and RIN spiked into rat plasma (HPLC-MS); format: physicochemical; details: for Stability (RE, %) 20°C/24 h / Stability (RE, %) Freeze-thaw (3 cycles) / Stability (RE, %) −80°C/20 days: rat plasma, n = 3; for stability spiked into rat plasma: room temperature (22–25°C) for 24 h, −80°C for 20 days, three freeze/thaw cycles
Protocol: The stability experiments on GAS, HBA, and RIN were performed at three concentrations of the QC samples, using three replicates at each concentration (10, 50, and 100 μg/mL for GAS and HBA and 1, 5, and 10 μg/mL for RIN). Short-term stability was determined after exposure of the spiked samples at room temperature for 24 h. The freeze/thaw stability was evaluated after three complete freeze/thaw cycles (−80°C) on consecutive days. Long-term stability was assessed after storage of the standard spiked plasma samples at −80°C for 20 days. Postextraction stability was determined after the extracted samples had been stored in the autosampler pending analysis at the temperature of the autoinjector (4°C) for 24 h. The analytes were considered stable in the biological matrix when 85–115% (RE) of the initial concentration was found.

[3] = in vivo, rat plasma, oral EPT 5.4 g/kg, n = 6
[4] = in vivo, rat plasma, oral Yizhi tablets 9 g/kg, n = 6
[5] = rat, in vivo, po, 9 g/kg, oral Yizhi tablets 9 g/kg, n = 6
[6] = rat, in vivo, po, 9 g/kg, text value matching the Yizhi tablet group (oral 9 g/kg)
[7] = rat plasma, oral EPT 5.4 g/kg, n = 6
[8] = rat plasma, oral Yizhi tablets 9 g/kg, n = 6
[9] = in vivo, rat plasma, oral EPG 3.6 g/kg, n = 6

Compound	AUC(0-inf) [1, 4] [ng·h/mL]	CL/F [1, 4] [mL/min/kg]	Cmax [1, 4] [ng/mL]	Tmax [1, 4] [h]	MRT last [1, 4] [h]	MRT inf [1, 4] [h]	AUC(0-t) [1, 5] [ng·h/mL]	AUC(0-t) [1, 6] [ng·h/mL]	Stability (RE, %) 20°C/24 h ([2]; 10 μg/mL) [%]	Stability (RE, %) Freeze-thaw (3 cycles) ([2]; 10 μg/mL) [%]	Stability (RE, %) −80°C/20 days ([2]; 10 μg/mL) [%]	Stability (RE, %) 20°C/24 h ([2]; 50 μg/mL) [%]	Stability (RE, %) Freeze-thaw (3 cycles) ([2]; 50 μg/mL) [%]	Stability (RE, %) −80°C/20 days ([2]; 50 μg/mL) [%]	Stability (RE, %) 20°C/24 h ([2]; 100 μg/mL) [%]	Stability (RE, %) Freeze-thaw (3 cycles) ([2]; 100 μg/mL) [%]	Stability (RE, %) −80°C/20 days ([2]; 100 μg/mL) [%]	stability spiked into rat plasma [2]	also measured
OCc1ccc(O[C@@H]2O[C@H](CO)[C@@H](O)[C@H](O)[C@H]2O)cc1 [GAS, Gastrodin]	249000	3.5 ± 0.1	141000 ± 19000	0.75	2.69	3.29	230000	230000	9.35	5.36	4.38	3.17	4.12	6.95	3.93	8.26	8.01	stable	AUC(0-inf) [1, 3]: 367000 ng·h/mL; CL/F [1, 3]: 2.32 ± 0.25 mL/min/kg; Cmax [1, 3]: 188000 ± 19300 ng/mL; Tmax [1, 3]: 0.361 h; MRT last [1, 3]: 2.03 h; MRT inf [1, 3]: 2.21 h; AUC(0-t) ([1]; rat, in vivo, po, 5.4 g/kg, oral EPT 5.4 g/kg, n = 6): 359000 ng·h/mL; MRT change when coadministered with Yizhi tablet ([1]; rat plasma, Yizhi tablet group versus EPT group): 1.32 fold; time of first of two successive maximum plasma concentrations ([1]; rat plasma, oral Yizhi tablets): 45 min; time of second of two successive maximum plasma concentrations ([1]; rat plasma, oral Yizhi tablets): 120 min
OCc1ccc(O)cc1 [HBA, p-hydroxybenzyl alcohol]	–	–	–	–	–	–	–	–	4.69	2.65	4.58	2.65	4.65	5.63	3.17	7.03	7.15	stable	AUC(0-inf) [1, 7]: 34700 ng·h/mL; AUC(0-t) [1, 7]: 27600 ng·h/mL; Cmax [1, 7]: 9120 ± 610 ng/mL; Tmax [1, 7]: 1 h; MRT last [1, 7]: 2.57 h; MRT inf [1, 7]: 3.98 h; AUC(0-inf) [1, 8]: 52200 ng·h/mL; AUC(0-t) [1, 8]: 37800 ng·h/mL; Cmax [1, 8]: 10400 ± 3020 ng/mL; Tmax [1, 8]: 0.917 h; MRT last [1, 8]: 4.44 h; MRT inf [1, 8]: 9.22 h; bioavailability in Yizhi tablet group compared with EPT alone ([1]; rat plasma, increased AUC, longer MRT (P < 0.01), higher C max): higher bioavailability
CC[C@H]1CN2CC[C@]3(C(=O)Nc4ccccc43)[C@@H]2C[C@@H]1/C(=C\OC)C(=O)OC [RIN, rhynchophylline]	32000	2.18 ± 0.46	6500 ± 1440	4	3.72	4.59	29700	29700	9.35	4.56	5.49	–	–	–	–	–	–	stable	AUC(0-inf) [1, 9]: 43400 ng·h/mL; CL/F [1, 9]: 1.55 ± 0.13 mL/min/kg; Cmax [1, 9]: 6170 ± 380 ng/mL; Tmax [1, 9]: 3.67 h; MRT last [1, 9]: 4.78 h; MRT inf [1, 9]: 5.59 h; AUC(0-t) ([1]; rat, in vivo, po, 3.6 g/kg, oral EPG 3.6 g/kg): 40200 ng·h/mL; AUC(0-t) ([1]; rat, in vivo, po, 3.6 g/kg, oral EPG 3.6 g/kg, n = 6): 40200 ng·h/mL; delay of T max ([1]; rat plasma, Yizhi tablets versus EPG alone): 0.333 h; Stability (RE, %) 20°C/24 h ([2]; 1 μg/mL): 8.63%; Stability (RE, %) Freeze-thaw (3 cycles) ([2]; 1 μg/mL): 7.18%; Stability (RE, %) −80°C/20 days ([2]; 1 μg/mL): 6.88%; Stability (RE, %) 20°C/24 h ([2]; 5 μg/mL): 7.65%; Stability (RE, %) Freeze-thaw (3 cycles) ([2]; 5 μg/mL): 8.08%; Stability (RE, %) −80°C/20 days ([2]; 5 μg/mL): 8.04%
